From patent US20240299484A1, “DILEUCINE COMPOSITIONS AND METHODS OF USE THEREOF” (Ingenious Ingredients, LP, priority 2023, published 2024)
Marks after values point to notes of the source that are not given here.

Key:
Assay type in all cases: in vivo, Swiss Albino mice
[1] = tested on: triglycerides (TG); test: Blood lipids: triglycerides; settings: for TG: after 28 days of supplementation, mice, n = 8; for TG Change over control [%]: vs Exercise Control, 28 days
Experimental: (§1) Eight 8-week-old male Swiss Albino mice per experimental group were housed in an animal room at a constant temperature (22±3° C.) and humidity (30%-70%) under a 12:12 h light-dark cycle with standard laboratory diet (Purina 5L79, Rat and Mouse 18% protein; PMI Nutrition International, Brentwood, MO, USA). Distilled water was provided ad libitum. All animal experiments were reviewed and approved by the Institutional Animal Ethical Committee (IAEC) of Radiant Research Services Pvt. Ltd (Bangalore, India). All research was conducted in accordance with the guidelines of the committee for the purpose of control and supervision of experiments on animals (CPCSEA Registration Number-1803/PO/RcBi/S/2015/CPCSEA).
(§2) After one week of acclimation, the animals were randomly divided by body weight into different groups (n=8 per group in each test) for oral treatment once a day, at approximately same time each day (+1 hour), for 28 consecutive days: (1) vehicle control; (2) paraxanthine (3) dileucine; (4) paraxanthine+dileucine; (5) L-arginine; (6) L-arginine+dileucine; (7) L-citrulline; and (8) L-citrulline+dileucine. The dose administered to the mice was calculated using US Food and Drug Administration for human equivalence doses (HED), assuming a human weight of 60 kg. The following HED were used in this study: 2,000 mg dileucine (RAMPS™, Ingenious Ingredients, L.P., Lewisville, TX, USA; mouse 411 mg/kg bw), 100 mg paraxanthine, (ENFINITY™, Ingenious Ingredients, L.P Lewisville, TX, USA; mouse dose: 20.5 mg/kg bw/day); 3,000 mg L-arginine (Nanjing Nutrabuilding Bio-tech Co., LTD., No. 270 Jiqingmen Strect, Suning Huigu, Building E6, Room 2105, Nanjing, China 210017; mouse 616.55 mg/kg bw), 3,000 mg L-citrulline (Nanjing Nutrabuilding Bio-tech Co., LTD., No. 270 Jiqingmen Street, Suning Huigu, Building E6, Room 2105, Nanjing, China 210017; mouse 616.55 mg/kg bw). 0.5% Carboxy Methyl Cellulose sodium was used as vehicle and the test item formulations were prepared daily. Dosing was conducted via oral gavage using disposable polypropylene syringes with sterilized stainless steel gavage tubes. The food intake and water consumption were monitored daily, and BW was recorded weekly. The last dose on day 28 was given 1 hour prior to testing.
(§3) All animals were euthanized by 95% CO2 after 28 days of following their assigned treatment. Blood was collected immediately after euthanization by the retro-orbital route and was immediately centrifuged at 1500×g for 10 min at 4° C. before having all serum transferred into cryogenic tubes and stored at −80° C.
(§4) Serum and plasma samples were separated by centrifuging the blood at 8000 rpm for 10 mins and analyze the below mentioned biomarkers, Biomarkers: TC, TG, LDL and HDL, CRP, Serum lactate, Ammonia, Glucose, NO, IL-2, IL-6, IL-10. Blood was collected in EDTA tubes for below mentioned biomarkers, Immune health Biomarkers (T helper subsets): TH1, TH2, TH17, Tfh, iTreg.

[2] = tested on: high-density lipids (HDL); test: Blood lipids: HDL; settings: for HDL Change over control [%]: vs Exercise Control, 28 days
Experimental: as §1, §2, §3, §4

[3] = tested on: low-density lipids (LDL); test: Blood lipids: LDL; settings: for LDL: after 28 days of supplementation, mice, n = 8; for LDL Change over control [%]: vs Exercise Control, 28 days
Experimental: as §1, §2, §3, §4

[4] = tested on: TH17; test: Immune health biomarkers (T helper subsets): TH17; settings: for TH17(%): T helper subset in blood after 28 days, mice, n = 8; for TH17 Change over control [%]: vs Exercise Control, 28 days
Experimental: (§5) PMI Nutrition International, Brentwood, MO, USA). Distilled water was provided ad libitum. All animal experiments were reviewed and approved by the Institutional Animal Ethical Committee (IAEC) of Radiant Research Services Pvt. Ltd (Bangalore, India). All research was conducted in accordance with the guidelines of the committee for the purpose of control and supervision of experiments on animals (CPCSEA Registration Number-1803/PO/[…]). […] (1) vehicle control; […] (4) paraxanthine+dileucine; […] The dose administered to the mice was calculated using US Food and Drug Administration for human equivalence doses (HED), assuming a human weight of 60 kg. […] Dosing was conducted via oral gavage using disposable polypropylene syringes with sterilized stainless steel gavage tubes. The food intake and water consumption were monitored daily, and BW was recorded weekly. The last dose on day 28 was given 1 hour prior to testing. Serum and plasma samples were separated by centrifuging the blood at 8000 rpm for 10 mins and analyze the below mentioned biomarkers, Biomarkers: TC, TG, LDL and HDL, CRP, Serum lactate, Ammonia, Glucose, NO, IL-2, IL-6, IL-10. Blood was collected in EDTA tubes for below mentioned biomarkers, Immune health Biomarkers (T helper subsets): […]

[5] = tested on: C-reactive protein (CRP); test: Inflammatory markers: CRP; settings: for CRP (mg/L): after 28 days of supplementation and exercise, mice, n = 8; for CRP Change over control [%]: vs Exercise Control, 28 days
Experimental: as §1, §2, §3, §4

[6] = tested on: total cholesterol (TC); test: Blood lipids: total cholesterol; settings: for TC / TC [mg/dl]: after 28 days of supplementation, mice, n = 8; for TC Change over control [%]: vs Exercise Control, 28 days
Experimental: as §1, §2, §3, §4

[7] = tested on: TH2; test: Immune health biomarkers (T helper subsets): TH2; settings: for TH2(%): T helper subset in blood after 28 days, mice, n = 8; for TH2 Change over control [%]: vs Exercise Control, 28 days
Experimental: as §5

[8] = Forelimb grip strength test; settings: for Forelimb grip strength (gf) Day −0: Day −0 (baseline), mice, n = 8; for Forelimb grip strength (gf) Day −28: Day −28, one hour after treatment, oral once a day for 28 days; for Increase strength over Day −0: Day −28 minus Day −0; for Percentage Increase over control (grip strength): increase vs Exercise Control, 28 days
Experimental: as §1, §2
The forelimb grip strength was measured on day 0 and day 28 by using a stainless-steel grill to assess muscle strength (Orchid Scientific & Innovative India Pvt Ltd, India). Grip strength was measured one hour after treatment. Briefly, each mouse was placed on a grill chamber and the steel bar is inverted; grip strength is measured by recording the time each animal holds the steel bar. The maximum time for each trial was six minutes. Each animal performed three independent trials separated by six minutes intervals and the mean of the three trials was calculated.

[9] = tested on: iTreg; test: Immune health biomarkers (T helper subsets): iTreg; settings: for iTreg(%) (mg/L) / iTreg(%): T helper subset in blood after 28 days, mice, n = 8; for iTreg Change over control [%]: vs Exercise Control, 28 days
Experimental: as §1, §2, §4

[10] = tested on: IL-10; test: Inflammatory markers: IL-10; settings: for IL-10 (pg/ml): after 28 days of supplementation and exercise, mice, n = 8; for IL-10 Change over control [%]: vs Exercise Control, 28 days
Experimental: as §1, §2, §3, §4

[11] = after 28 days of supplementation, mice, n = 8

Row | Structure (SMILES) | TG [1] [mg/dL] | TG Change over control [%] [1] [%] | HDL Change over control [%] [2] [%] | LDL [3] [mg/dL] | LDL Change over control [%] [3] [%] | TH17(%) [4] | TH17 Change over control [%] [4] [%] | CRP (mg/L) [5] | CRP Change over control [%] [5] [%] | TC Change over control [%] [6] [%] | TH2(%) [7] | TH2 Change over control [%] [7] [%] | Forelimb grip strength (gf) Day −0 [8] [gf] | Forelimb grip strength (gf) Day −28 [8] | Increase strength over Day −0 [8] [gf] | Percentage Increase over control (grip strength) [8] [%] | iTreg Change over control [%] [9] [%] | IL-10 (pg/ml) [10] | IL-10 Change over control [%] [10] [%] | HDL [2, 11] [mg/dL] | other results
1 | CC(C)C[C@H](NC(=O)[C@@H](N)CC(C)C)C(=O)O [Dileucine, L-Leucyl-L-leucine] | 92.66 | −3 | 8 | 42.05 | −3 | 29.62*** % | 712 | 0.63*** mg/L | −18 | −6 | 53.68*** % | 368 | 99.25 | 149.0*** gf | 49.75 | 76 | −66 | 569.36*** pg/ml | 8 |  | HDL [mg/dl] [2, 11]: 37.63* mg/dl; TC [6]: 93.3 mg/dL; iTreg(%) (mg/L) [9]: 18.68*** %
2 | N=C(N)NCCC[C@H](N)C(=O)O [L-Arginine, L-arginine] | 94.1 | −2 | 5 | 44.66 | 3 | 26.16*** % | 617 | 0.69*** mg/L | −16 | −5 | 40.44*** % | 252 | 99.75 | 139.13*** gf | 39.38 | 39 | −34 | 565.47** pg/ml | 5 | 35.86 | TC [6]: 95.43 mg/dL; iTreg(%) [9]: 35.86*** %
3 | NC(=O)NCCC[C@H](N)C(=O)O [L-Citrulline, L-citrulline] | 94.58 | −2 | 4 | 44.01 | 1 | 25.89*** % | 609 | 0.69*** mg/L | −16 | −6 | 38.23*** % | 234 | 97.63 | 138.5*** gf | 40.87 | 45 | −29 | 559.63** pg/ml | 4 | 35.63 | TC [mg/dl] [6]: 94.26* mg/dl; iTreg(%) [9]: 38.83*** %
4 | Cn1c(=O)[nH]c2ncn(C)c2c1=O [Paraxanthine, 1,7-dimethylxanthine] | 91.94 | −4 | 4 | 43.23 | −1 | 31.33*** % | 758 | 0.64** mg/L | −17 | −8 | 53.63*** % | 368 | 98.38 | 148.88*** gf | 50.5 | 79 | −57 | 571.71*** pg/ml | 8 | 36.36 | TC [mg/dl] [6]: 91.66** mg/dl; iTreg(%) (mg/L) [9]: 23.68*** %
